Reference: patent publication US8741897B2, “Glucocorticoid mimetics, methods of making them, pharmaceutical compositions and uses thereof” (Boehringer Ingelheim Pharmaceuticals Inc., priority 2003, dated 2014)

Each compound was assayed on glucocorticoid receptor function (assay: one or more of the above assays (GR binding and glucocorticoid receptor cell assays: aromatase, IL-6, TAT, MMTV-Luc, IL-8, ICAM-Luc)). Settings: assay not specified per compound.
Format: cell-based
Experimental: B. Glucocorticoid Receptor Cell Assays
1. Induction of Aromatase in Fibroblasts (Cell Assay for Transactivation)
Dexamethasone, a synthetic ligand to the glucocorticoid receptor (GR), induces expression of aromatase in human foreskin fibroblast cells. The activity of aromatase is measured by the conversion of testosterone to estradiol in culture media.
On the day of the experiment, the media in the wells is replaced with fresh media. Cells are treated with test compounds to final concentrations of 10^−5 M to 10^−8 M, and testosterone to a final concentration of 300 ng/mL. Each well has a total volume of 100 μL. Samples are made in duplicates. Control wells include: (a) wells that receive testosterone only, and (b) wells that receive testosterone plus 2 μM of dexamethasone to provide maximum induction of aromatase. Plates are incubated at 37° C. overnight (15 to 18 hours), and supernatants are harvested at the end of incubation. […] The amount of estradiol is inversely proportional to the ELISA signals in each well. The extent of aromatase induction by test compounds is expressed as a relative percentage to dexamethasone. EC50 values of test compounds are derived by non-linear curve fitting.
2. Inhibition of IL-6 Production in Fibroblasts (Cell Assay for Transrepression)
Human foreskin fibroblast cells produce IL-6 in response to stimulation by proinflammatory cytokine IL-1.
On the next day, media in the wells is replaced with fresh media. Cells are treated with IL-1 (rhIL-1α, R&D Systems Cat. No. 200-LA) to a final concentration of 1 ng/mL, and with test compounds to final concentrations of 10^−5 M to 10^−8 M, in a total volume of 200 μL per well. Samples are done in duplicates. […] Positive control wells receive IL-1 only and represent maximum (or 100%) amount of IL-6 production. Plates are incubated at 37° C. overnight (15 to 18 hours), and supernatants are harvested at the end of incubation. IL-6 levels in the supernatants are determined by the ELISA kits for IL-6 (MedSystems Diagnostics GmbH, Vienna, Austria, Cat. No. BMS213TEN) according to manufacture's instructions. The extent of inhibition of IL-6 by test compounds is expressed in percentage relative to positive controls. IC50 values of test compounds are derived by non-linear curve fitting.
Evaluation of agonist or antagonist activity of compounds binding to the glucocorticoid receptor may be determined by any of the assays.
3. Modulation of Tyrosine Aminotransferase (TAT) Induction in Rat Hepatoma Cells
Testing of compounds for agonist or antagonist activity in induction of tyrosine aminotransferase (TAT) in rat hepatoma cells.
H4-II-E-C3 cells were incubated overnight in 96 well plates (20,000 cells/100 μL/well) in MEM medium containing 10% heat inactivated FBS and 1% nonessential amino acids. On the next day, cells were stimulated with the indicated concentrations of dexamethasone or test compound (dissolved in DMSO, final DMSO concentration 0.2%) for 18 hours. Control cells were treated with 0.2% DMSO. After 18 hours, the cells were lysed in a buffer containing 0.1% Triton X-100 and the TAT activity was measured in a photometric assay using tyrosine and alpha-ketoglutarate as substrates.
For measuring antagonist activity, the hepatoma cells were pre-stimulated by addition of dexamethasone (concentration ranges from 3×10^−9 M to 3×10^−8 M) shortly before the test compound was applied to the cells.
4. Modulation of MMTV-Luc Induction in HeLa Cells
Testing of compounds for agonist or antagonist activity in stimulation of MMTV-(mouse mammary tumor virus) promoter in HeLa cells.
Cells were cultured overnight in DMEM medium without phenol red, supplemented with 3% CCS (charcoal treated calf serum) and then transferred to 96 well plates (15,000 cells/100 μL/well).

Row | Compound | activity as agonists of the glucocorticoid receptor function in one or more of the above assays
1 | COc1ccc(-c2cccnc2)cc1C(C)(C)CC(O)(Cc1cc2ccncc2[nH]1)C(F)(F)F (stereo not shown) [1,1,1-Trifluoro-4-(2-methoxy-5-pyridin-3-ylphenyl)-4-methyl-2-(1H-pyrrolo[2,3-c]pyridin-2-ylmethyl)pentan-2-ol] | potent agonists
2 | CC(C)(CC(O)(Cc1cc2cc(N3CCOCC3)ncc2[nH]1)C(F)(F)F)c1cccc(-c2cncnc2)c1 (stereo not shown) [1,1,1-Trifluoro-4-methyl-2-(5-morpholin-4-yl-1H-pyrrolo[2,3-c]pyridin-2-ylmethyl)-4-(3-pyrimidin-5-ylphenyl)pentan-2-ol] | potent agonists
3 | CC(C)(CC(O)(Cc1cc2nc(N3CCCC3)ncc2[nH]1)C(F)(F)F)c1cc(Cl)cc2c1OCC2 (stereo not shown) [4-(5-Chloro-2,3-dihydrobenzofuran-7-yl)-1,1,1-trifluoro-4-methyl-2-(2-pyrrolidin-1-yl-5H-pyrrolo[3,2-d]pyrimidin-6-ylmethyl)pentan-2-ol] | potent agonists
4 | CCC(=O)c1ccc2[nH]c(CC(O)(CC(C)(C)c3cc(Cl)cc4c3OCC4)C(F)(F)F)cc2n1 (stereo not shown) [1-{2-[4-(5-Chloro-2,3-dihydrobenzofuran-7-yl)-2-hydroxy-4-methyl-2-trifluoromethylpentyl]-1H-pyrrolo[3,2-b]pyridin-5-yl}propan-1-one] | potent agonists
5 | COc1ccc(-c2ccccc2)cc1C(C)(C)CC(O)(Cc1cc2cc(OC(C)C)ncc2[nH]1)C(F)(F)F (stereo not shown) [1,1,1-Trifluoro-2-(5-isopropoxy-1H-pyrrolo[2,3-c]pyridin-2-ylmethyl)-4-(4-methoxybiphenyl-3-yl)-4-methylpentan-2-ol] | potent agonists
6 | COc1ccc(-c2cncnc2)cc1C(C)(C)CC(O)(Cc1cc2cnccc2[nH]1)C(F)(F)F (stereo not shown) [1,1,1-Trifluoro-4-(2-methoxy-5-pyrimidin-5-ylphenyl)-4-methyl-2-(1H-pyrrolo[3,2-c]pyridin-2-ylmethyl)pentan-2-ol] | potent agonists
7 | Cc1ccc(F)cc1C(C)(C)CC(O)(Cc1cc2ccncc2[nH]1)C(C)C (stereo not shown) [5-(5-Fluoro-2-methylphenyl)-2,5-dimethyl-3-(1H-pyrrolo[2,3-c]pyridin-2-ylmethyl)hexan-3-ol] | agonists
8 | CC(C)Oc1cc2cc(CC(O)(CC(C)(C)c3cc(F)ccc3C(F)(F)F)C(F)(F)F)[nH]c2cn1 (stereo not shown) [1,1,1-Trifluoro-4-(5-fluoro-2-trifluoromethylphenyl)-2-(5-isopropoxy-1H-pyrrolo[2,3-c]pyridin-2-ylmethyl)-4-methylpentan-2-ol] | potent agonists
9 | CC(C)(CC(O)(Cn1ccc2c1CCCC2=O)C(F)(F)F)c1cc(F)ccc1O (stereo not shown) | agonists
10 | CC(C)(CC(O)(Cc1cc2cc(-c3cncnc3)ccc2[nH]1)C(F)(F)F)c1cc(F)cc2c1OCC2 (stereo not shown) [1,1,1-Trifluoro4-(5-fluoro-2,3-dihydrobenzofuran-7-yl)-4-methyl-2-(5-pyrimidin-5-yl-1H-indol-2-ylmethyl)pentan-2-ol] | potent agonists
11 | COc1cc(F)ccc1C(C)(C)CC(O)(Cc1cc2cc(N(C)C)ncc2[nH]1)C(F)(F)F (stereo not shown) [2-(5-Dimethylamino-1H-pyrrolo[2,3-c]pyridin-2-ylmethyl)-1,1,1-trifluoro-4-(4-fluoro-2-methoxyphenyl)-4-methylpentan-2-ol] | potent agonists
12 | CC(C)(CC(O)(Cc1[nH]c2ccccc2c1Br)C(F)(F)F)c1cccc(F)c1 (stereo not shown) [2-(3-Bromo-1H-indol-2-ylmethyl)-1,1,1-trifluoro-4-(3-fluorophenyl)-4-methylpentan-2-ol] | potent agonists
13 | Cc1ccc(F)cc1C(C)(C)CC(O)(Cc1cc2cc(-c3ccccc3)nnc2[nH]1)C(F)(F)F (stereo not shown) | potent agonists
14 | COc1ccc(C)cc1C(C)(C)CC(O)(Cc1cc2nc(N3CCCC3)ncc2[nH]1)C(F)(F)F (stereo not shown) [1,1,1-Trifluoro-4-(2-methoxy-5-methylphenyl)-4-methyl-2-(2-pyrrolidin-1-yl-5H-pyrrolo[3,2-d]pyrimidin-6-ylmethyl)pentan-2-ol] | potent agonists
15 | COc1ccc(-c2cccnc2)cc1C(C)(C)CC(O)(Cc1cc2cc(Oc3ccccc3)ncc2[nH]1)C(F)(F)F (stereo not shown) [1,1,1-Trifluoro-4-(2-methoxy-5-pyridin-3-ylphenyl)-4-methyl-2-(5-phenoxy-1H-pyrrolo[2,3-c]pyridin-2-ylmethyl)pentan-2-ol] | potent agonists
16 | Cc1cccc2[nH]c(CC(O)(CC(C)(C)c3cc(S(C)(=O)=O)cc4c3OCC4)C(F)(F)F)cc12 (stereo not shown) [1,1,1-Trifluoro-4-(5-methanesulfonyl-2,3-dihydrobenzofuran-7-yl)-4-methyl-2-(4-methyl-1H-indol-2-ylmethyl)pentan-2-ol] | potent agonists
17 | CC(C)(CC(O)(Cc1cc2cc(Br)ccc2[nH]1)C(F)(F)F)c1cc(Cl)cc2c1OCC2 (stereo not shown) [2-(5-Bromo-1H-indol-2-ylmethyl)-4-(5-chloro-2,3-dihydrobenzofuran-7-yl)-1,1,1-trifluoro-4-methylpentan-2-ol] | potent agonists
18 | CN1C=CC2=CC(CC(O)(CC(C)(C)c3cc(Cl)cc4c3OCC4)C(F)(F)F)NC2=C1 (stereo not shown) [4-(5-Chloro-2,3-dihydrobenzofuran-7-yl)-1,1,1-trifluoro-4-methyl-2-(6-methyl-1H-pyrrolo[2,3-c]pyridin-2-ylmethyl)pentan-2-ol] | potent agonists
19 | COc1ccc(-c2ccccc2Cl)cc1C(C)(C)CC(O)(Cc1cc2cc(N3CCOCC3)ncc2[nH]1)C(F)(F)F (stereo not shown) [4-(2′-Chloro-4-methoxybiphenyl-3-yl)-1,1,1-trifluoro-4-methyl-2-(5-morpholin-4-yl-1H-pyrrolo[2,3-c]pyridin-2-ylmethyl)pentan-2-ol] | potent agonists
20 | COc1ccc(F)cc1C(C)(C)CC(O)(Cc1[nH]c2ccncc2c1Cl)C(F)(F)F (stereo not shown) [2-(3-Chloro-1H-pyrrolo[3,2-c]pyridin-2-ylmethyl)-1,1,1-trifluoro-4-(5-fluoro-2-methoxyphenyl)-4-methylpentan-2-ol] | potent agonists
21 | CC(C)(CC(O)(Cc1cc2nnccc2[nH]1)C(F)(F)F)c1cc(F)ccc1O (stereo not shown) [4-Fluoro-2-[4,4,4-trifluoro-3-hydroxy-1,1-dimethyl-3-(5H-pyrrolo[3,2-c]pyridazin-6-ylmethyl)butyl]phenol] | potent agonists
22 | Cc1nccc2[nH]c(CC(O)(CC(C)(C)c3cc(-c4cccnc4)ccc3O)C(F)(F)F)cc12 (stereo not shown) [4-Pyridin-3-yl-2-[4,4,4-trifluoro-3-hydroxy-1,1-dimethyl-3-(4-methyl-1H-pyrrolo[3,2-c]pyridin-2-ylmethyl)butyl]phenol] | potent agonists
